# Measurements taken from patent publication US7342029B2, “Substituted indoles” (Sanofi-Aventis Deutschland GmbH, priority 1999, dated 2008).
# Tests used:
# [1] = target: T1, IκB kinase (Homo sapiens, UniProt O14920+O15111); assay: IκB kinase ELISA; assay type: biochemical; settings: kinase complex from HeLa S3 cell extract S100, activated with MEKK1Δ
# T1 construct: endogenous in cells; host or cells: HeLa S3 cell extract S100 (ammonium sulfate cut, Superose-6 fractions at 670 kDa)
# Protocol: The activity of the IκB kinase was determined using an ELISA comprising a biotinilated substrate peptide containing the amino acid sequence in the protein IκB of serines 32 to 36 and a specific poly- or monoclonal antibody (for example from New England Biolabs, Beverly, Mass., USA, cat.: 9240), which binds only to the phosphorylated form of the peptide IκB. This complex was immobilized on an antibody-binding plate (coated with protein A) and detected using a conjugate of a biotin-binding protein and HRP (for example streptavidine HRP). The activity could be quantified using a standard curve with substrate phosphopeptide.
# To obtain the kinase complex, 10 ml of HeLa S3 cell extract S100 were diluted with 40 ml 50 mM HEPES, pH 7.5, adjusted to 40% ammonium sulfate and incubated on ice for 30 minutes. The precipitated pellet was dissolved in 5 ml SEC buffer (50 mM HEPES, pH 7.5, 1 mM DTT, 0.5 mM EDTA, 10 mM 2-glycerophosphate), centrifuged at 20,000×g for 15 minutes and filtered through a 0.22 μm filter. The sample was applied to a 320 ml Superose-6 FPLC column (Amersham Pharmacia Biotech AB, Uppsala, Sweden) which had been equilibrated with SEC buffer and was operated at a flow rate of 2 ml/min at 4° C. The fractions which corresponded to the elution time of the 670 kDa molecular weight standard were combined for activation. Activation was achieved by a 45-minute-incubation with 100 nM MEKK1Δ, 250 μM MgATP, 10 mM MgCl2, 5 mM dithiothreitol (DTT), 10 mM 2-glycerophosphate, 2.5 μM microcystin LR at 37° C. The activated enzyme was stored at −80° C.
# The test substances, dissolved in DMSO (2 μl), were preincubated at 25° C. with 43 μl of activated enzyme (diluted 1:25 in reaction buffer 50 mM HEPES, pH 7.5, 10 mM MgCl2, 5 mM DTT, 10 mM β-glycerophosphate, 2.5 μM microcystin LR) for 30 minutes. 5 μl of substrate peptide (biotin-(CH2)6-DRHDSGLDSMKD-CONH2) (200 μM) were added, the mixture was incubated for one hour and the reaction was quenched using 150 μl of 50 mM HEPES, pH 7.5, 0.1% BSA, 50 mM EDTA, antibody [1:200]. 100 μl of the quenched reaction mixture or a standard phosphopeptide dilution series (biotin-(CH2)6-DRHDS[PO3]GLDSMKD-CONH2) were then transferred to a protein A plate (Pierce Chemical Co., Rockford, Ill., USA) and incubated with shaking for 2 hours.
# After 3 washing steps with PBS, 100 μl of 0.5 μg/ml of streptavidin HRP (horseradish peroxidase) (diluted in 50mM HEPES/0.1% BSA) were added for 30 minutes. After 5 washing steps with PBS, 100 μl of TMB substrate (Kirkegaard & Perry Laboratories, Gaithersburg, Md., USA) were added and the development of color was stopped by addition of 100 μl of 0.18 M sulfuric acid. Absorption was measured at 450 nm. The standard curve was generated by […] according to a 4-parameter dose-activity relation. Using this standard curve, the enzyme activity or their inhibition by test substances was quantified.
# Each substance was tested in duplicate. The mean of the blank (without enzyme) was subtracted from the means (enzyme with and without substances), and the inhibition in % was calculated. IC50 calculations were carried out using the software package GraFit 3.0.
# [2] = target: T2, casein kinase II (CK II) (Homo sapiens, UniProt P68400); assay: CK II kinase inhibition (Upstate test kit); assay type: biochemical; settings: substance concentration 100 μM; ATP 50 μM
# T2 construct: purchased Upstate Biotechnologie
# Protocol: (§1) cAMP-dependent protein kinase (PKA), protein kinase C (PKC) and casein kinase II (CK II) were determined using the corresponding test kits of Upstate Biotechnologie according to the instructions of the manufacturer at an ATP concentration of 50 μM. However, instead of phosphocellulose filters, multi-screen plates (Millipore; Phosphocellulose MS-PH, cat. MAPHNOB10) with the corresponding aspiration system were used. The plates were then measured in a Wallac MicroBeta scintillation counter. In each case, 100 μM of test substance were used. Each substance was tested in duplicate. The mean of the blank (without enzyme) was subtracted from the means (enzyme with and without substances), and the inhibition in % was calculated. IC50 calculations were carried out using the software package GraFit 3.0.
# [3] = target: T3, cAMP-dependent protein kinase (PKA) (Homo sapiens, UniProt P17612); assay: PKA kinase inhibition (Upstate test kit); assay type: biochemical; settings: substance concentration 100 μM; ATP 50 μM
# T3 construct: purchased Upstate Biotechnologie
# Protocol: as §1
# [4] = test system: protein kinase C (PKC); assay: PKC kinase inhibition (Upstate test kit); assay type: biochemical; settings: substance concentration 100 μM; ATP 50 μM
# Protocol: as §1
# T2 sequence (P68400 whole entry): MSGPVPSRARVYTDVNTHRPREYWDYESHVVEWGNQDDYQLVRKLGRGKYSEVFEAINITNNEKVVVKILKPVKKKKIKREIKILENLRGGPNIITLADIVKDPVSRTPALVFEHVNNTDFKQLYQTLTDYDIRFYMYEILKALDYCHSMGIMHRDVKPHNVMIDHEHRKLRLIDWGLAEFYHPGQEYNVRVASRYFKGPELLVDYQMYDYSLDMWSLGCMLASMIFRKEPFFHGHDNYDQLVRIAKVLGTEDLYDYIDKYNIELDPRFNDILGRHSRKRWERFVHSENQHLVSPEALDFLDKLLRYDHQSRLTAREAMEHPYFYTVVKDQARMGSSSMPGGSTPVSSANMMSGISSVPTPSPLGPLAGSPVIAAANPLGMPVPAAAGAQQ
# T1 sequence (O14920 whole entry): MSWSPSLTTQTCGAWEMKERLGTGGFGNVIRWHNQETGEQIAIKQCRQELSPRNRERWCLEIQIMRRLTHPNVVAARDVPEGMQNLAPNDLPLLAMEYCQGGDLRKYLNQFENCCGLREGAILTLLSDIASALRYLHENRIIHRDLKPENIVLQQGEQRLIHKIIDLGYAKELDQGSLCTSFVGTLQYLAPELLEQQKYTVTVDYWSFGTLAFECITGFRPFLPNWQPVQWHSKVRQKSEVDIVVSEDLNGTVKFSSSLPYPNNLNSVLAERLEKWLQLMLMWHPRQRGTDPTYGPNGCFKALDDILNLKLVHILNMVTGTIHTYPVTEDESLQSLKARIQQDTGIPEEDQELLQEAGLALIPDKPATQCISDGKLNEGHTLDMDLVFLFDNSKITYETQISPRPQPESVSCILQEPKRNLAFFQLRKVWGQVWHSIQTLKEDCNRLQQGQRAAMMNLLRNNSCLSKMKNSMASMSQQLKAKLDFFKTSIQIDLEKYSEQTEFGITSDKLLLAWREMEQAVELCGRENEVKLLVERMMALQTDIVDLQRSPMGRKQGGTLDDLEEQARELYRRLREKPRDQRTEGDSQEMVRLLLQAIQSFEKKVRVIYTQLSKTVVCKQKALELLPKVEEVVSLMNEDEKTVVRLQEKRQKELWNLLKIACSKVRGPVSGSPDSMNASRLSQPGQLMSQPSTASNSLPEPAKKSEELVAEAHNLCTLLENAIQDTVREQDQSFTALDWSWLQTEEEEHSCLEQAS
# T1 sequence (O15111 whole entry): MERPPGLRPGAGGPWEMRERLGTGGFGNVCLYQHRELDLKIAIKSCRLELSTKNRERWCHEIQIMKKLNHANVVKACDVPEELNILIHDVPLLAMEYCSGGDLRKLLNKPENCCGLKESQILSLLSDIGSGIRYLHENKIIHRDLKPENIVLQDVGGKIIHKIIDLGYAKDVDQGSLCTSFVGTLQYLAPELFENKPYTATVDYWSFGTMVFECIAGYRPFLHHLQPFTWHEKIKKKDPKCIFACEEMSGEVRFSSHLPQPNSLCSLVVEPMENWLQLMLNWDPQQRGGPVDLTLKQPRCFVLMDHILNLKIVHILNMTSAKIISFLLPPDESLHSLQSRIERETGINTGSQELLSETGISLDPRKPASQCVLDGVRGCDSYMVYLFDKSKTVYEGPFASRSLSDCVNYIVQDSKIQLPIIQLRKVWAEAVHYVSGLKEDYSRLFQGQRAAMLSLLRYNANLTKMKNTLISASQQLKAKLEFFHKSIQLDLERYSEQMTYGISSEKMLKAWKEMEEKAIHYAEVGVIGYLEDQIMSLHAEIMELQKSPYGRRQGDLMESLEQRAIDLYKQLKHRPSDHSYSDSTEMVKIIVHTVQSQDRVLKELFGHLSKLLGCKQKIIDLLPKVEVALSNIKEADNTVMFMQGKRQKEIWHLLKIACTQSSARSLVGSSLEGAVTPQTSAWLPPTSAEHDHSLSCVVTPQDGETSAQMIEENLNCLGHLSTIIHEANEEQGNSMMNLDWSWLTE
# T1 sequence (Q9Y6K9 whole entry partner): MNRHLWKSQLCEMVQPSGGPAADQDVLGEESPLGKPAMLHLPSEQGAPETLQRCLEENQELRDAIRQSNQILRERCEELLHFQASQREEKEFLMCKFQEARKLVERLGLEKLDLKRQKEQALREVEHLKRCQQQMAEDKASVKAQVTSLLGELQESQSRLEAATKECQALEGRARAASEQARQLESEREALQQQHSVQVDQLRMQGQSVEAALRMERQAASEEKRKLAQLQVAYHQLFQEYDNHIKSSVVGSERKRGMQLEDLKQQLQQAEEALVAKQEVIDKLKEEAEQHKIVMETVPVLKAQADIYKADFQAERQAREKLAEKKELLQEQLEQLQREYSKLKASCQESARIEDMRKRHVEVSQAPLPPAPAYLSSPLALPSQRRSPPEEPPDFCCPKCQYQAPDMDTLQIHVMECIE
SMILES,IC50 [1] [nM],inhibition at 100 µM [2] [%],melting point [°C],inhibition at 100 µM [3] [%],PKC % inhibition [4] [%]
"NC(=O)[C@H](CCc1ccccc1)NC(=O)c1ccc2[nH]c(-c3ccccc3)c(-c3ccccc3)c2c1 [Example 1, N-(1-Carbamoyl-3-phenylpropyl)-2,3-diphenyl-1H-indole-5-carboxamide]",32000,,120 to 125,,
"NC(=O)[C@H](CSc1ccccc1)NC(=O)c1ccc2[nH]c(-c3ccncc3)cc2c1 (stereo in doubt) [Example 3, N-(1-carbamoyl-2-phenylsulfanylethyl)-2-pyridin-4-yl-1H-indole-5-carboxamide]",550,37,,35,39
NC(=O)[C@H](CCc1ccccc1)NC(=O)c1ccc2[nH]c(-c3ccncc3)cc2c1 [Example 2],610,35,,24,15

# Next, values leading:
IC50 [1] [nM],inhibition at 100 µM [2] [%],melting point [°C],inhibition at 100 µM [3] [%],PKC % inhibition [4] [%],SMILES
3000,18,,,,"Cc1c(-c2ccncc2)[nH]c2ccc(C(=O)N[C@@H](CCn3cccc3)C(N)=O)cc12 [Example 7, N-(1-Carbamoyl-3-pyrrol-1-ylpropyl)-3-methyl-2-pyridin-4-yl-1H-indole-5-carboxamide]"
500,47,,42,33,O=C(N[C@@H](CSc1ccccc1)C(=O)O)c1ccc2[nH]c(-c3ccncc3)cc2c1 [Example 4]
1000,0,,0,23,CCN(C[C@H](NC(=O)c1ccc2[nH]c(-c3ccncc3)cc2c1)C(N)=O)c1ccccc1 [Example 9]
4900,39,,60,58,Cc1c(-c2ccncc2)[nH]c2ccc(C(=O)N[C@@H](CSc3ccccc3)C(N)=O)cc12 [Example 6]
1800,27,,55,8,Cc1c(-c2ccncc2)[nH]c2ccc(C(=O)N[C@@H](CSc3ccccc3)C(=O)O)cc12 [Example 5]
